From the supplement of paper PMC11061612

Assays:
Test in all cases: combination Emax (second highest fraction inhibited in the dose matrix, 72 h); higher = more inhibition; extreme values may be limits of the assay
[1] = tested on: ALL-SIL (T-Lymphoblastic Leukemia)
Outline: (§1)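 Cell lines in DMEM/F12 or RPMI with 10% FBS were plated in 1536-well plates, held 24 hours at 37°C, 5% CO2, then given two-drug dose matrices for 72 hours (DMSO typically 0.2%). Viability was read by CellTiter-Glo 2.0 luminescence and scaled as inhibition from 0 (vehicle wells) to 1 (blank wells). Combination Emax is the second-highest inhibition in the matrix; Bliss excess is observed combination effect minus expected EA + EB − EA·EB, EA and EB being single-agent effects.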

[2] = tested on: COLO-679 (Melanoma)
Outline: as §1

[3] = tested on: HAL-01 (B-Lymphoblastic Leukemia)
Outline: as §1

[4] = tested on: MDA-MB-453 (Breast Carcinoma)
Outline: as §1

[5] = tested on: Hey (Ovarian Carcinoma)
Outline: as §1

[6] = tested on: Mo-T (Other Blood Carcinomas)
Outline: as §1

[7] = tested on: OACM5-1 (Esophageal Adenocarcinoma)
Outline: as §1

[8] = tested on: KGN (Other Solid Carcinomas)
Outline: as §1

[9] = tested on: MOLT-4 (T-Lymphoblastic Leukemia)
Outline: as §1

[10] = tested on: A4-Fuk (B-Lymphoblastic Leukemia)
Outline: as §1

[11] = tested on: NCI-H650 (Lung Adenocarcinoma)
Outline: as §1

[12] = tested on: KMRC-1 (Kidney Carcinoma)
Outline: as §1

[13] = tested on: HCC2998 (Colorectal Carcinoma)
Outline: as §1

[14] = tested on: CADO-ES1 (Ewing's Sarcoma)
Outline: as §1

[15] = tested on: NCI-H1993 (Lung Adenocarcinoma)
Outline: as §1

[16] = tested on: EW-1 (Ewing's Sarcoma)
Outline: as §1

[17] = tested on: ML-2 (Acute Myeloid Leukemia)
Outline: as §1

[18] = tested on: MV-4-11 (Acute Myeloid Leukemia)
Outline: as §1

[19] = tested on: ME-180 (Cervical Carcinoma)
Outline: as §1

[20] = tested on: KOPN-8 (B-Lymphoblastic Leukemia)
Outline: as §1

Compound	combination Emax [1]	combination Emax [2]	combination Emax [3]	combination Emax [4]	combination Emax [5]	combination Emax [6]	combination Emax [7]	combination Emax [8]	combination Emax [9]	combination Emax [10]	combination Emax [11]	combination Emax [12]	combination Emax [13]	combination Emax [14]	combination Emax [15]	combination Emax [16]	combination Emax [17]	combination Emax [18]	combination Emax [19]	combination Emax [20]
COc1cccc(OCCCN)c1-c1cc(Nc2cnc(C#N)cn2)n[nH]1 [Prexasertib] + C[C@@H]1COCCN1C2=NC(=NC(=C2)C3(CC3)[S@](=N)(=O)C)C4=C5C=CNC5=NC=C4 [AZD6738] (first compound max 1 µM, 7x7, partner max 10 µM)	0.993	0.867	1	0.888	0.877	0.571	0.621	0.834	1	0.879	0.647	0.555	0.967	0.918	0.721	0.96	1	1	0.485	0.977
NC1(C(=O)N[C@@H](CCO)c2ccc(Cl)cc2)CCN(c2ncnc3[nH]ccc23)CC1 [Capivasertib] + COc1nnc2ccc(N3CCC(c4ccc(OCCN5CCN(C)C(=O)[C@H]5C)cc4)CC3)nn12 [AZD5153] (first compound max 10 µM, 7x7, partner max 1 µM)	0.841	0.578	0.719	0.93	0.556	0.649	0.805	0.709	1	0.95	0.579	0.557	0.872	0.356	0.676	0.71	0.997	1	0.693	0.992
Cc1c2c(nn1C)CSCc1cc(n(C)n1)CSc1cc(c3ccccc3c1)OCCCc1c(C(=O)O)n(C)c3c-2c(Cl)ccc13 [AZD5991] + CN(C)CCCOc1ccc(-c2ccc3ncc4c(c3c2)n(C2CCOCC2)c(=O)n4C)cn1 [AZD0156] (first compound max 1 µM, 7x7, partner max 1 µM)	0.986	0.243	0.686	0.298	0.254	0.229	0.928	0.425	0.304	1	0.272	0.197	0.952	0.946	0.474	0.375	1	1	0.278	0.963
COc1nnc2ccc(N3CCC(c4ccc(OCCN5CCN(C)C(=O)[C@H]5C)cc4)CC3)nn12 [AZD5153] + CCN(CCO)CCCOc1ccc2c(Nc3cc(CC(=O)Nc4cccc(F)c4)[nH]n3)ncnc2c1 [AZD2811] (first compound max 1 µM, 7x7, partner max 1 µM)	1	0.485	0.752	0.677	0.618	0.599	0.734	0.691	1	0.893	0.443	0.316	0.752	0.248	0.479	0.64	1	1	0.524	0.996
Cc1c2c(nn1C)CSCc1cc(n(C)n1)CSc1cc(c3ccccc3c1)OCCCc1c(C(=O)O)n(C)c3c-2c(Cl)ccc13 [AZD5991] + C1CN(CCC1(C(=O)N[C@@H](CCO)C2=CC=C(C=C2)Cl)N)C3=NC=NC4=C3C=CN4 [Capivasertib] (first compound max 1 µM, 7x7, partner max 3 µM)	1	0.19	0.527	0.61	0.156	0.281	0.969	0.329	0.92	1	0.209	0.432	0.902	0.927	0.461	0.415	1	1	0.517	0.901
CC(=O)c1c(C)c2cnc(Nc3ccc(N4CCNCC4)cn3)nc2n(C2CCCC2)c1=O [Palbociclib] + Cn1cnc2c(F)c(Nc3ccc(Br)cc3Cl)c(C(=O)NOCCO)cc21 [Selumetinib] (first compound max 10 µM, 7x7, partner max 10 µM)	0.38	0.75	0.928	0.241	0.623	0.329	0.477	0.529	0.766	0.732	0.36	0.218	0.781	0.265	0.69	0.551	0.869	0.955	0.297	0.801
COc1cccc(OCCCN)c1-c1cc(Nc2cnc(C#N)cn2)n[nH]1 [Prexasertib] + C=CCn1c(=O)c2cnc(Nc3ccc(N4CCN(C)CC4)cc3)nc2n1-c1cccc(C(C)(C)O)n1 [AZD1775] (first compound max 1 µM, partner max 1 µM)	1	0.827	1	0.909	0.837	0.539	0.802	0.862	1	0.906	0.732	0.627	0.984	0.946	0.906	0.966	1	1	0.652	0.995
Cn1cnc2c(F)c(Nc3ccc(Br)cc3Cl)c(C(=O)NOCCO)cc21 [Selumetinib] + CCN(CCO)CCCOc1ccc2c(Nc3cc(CC(=O)Nc4cccc(F)c4)[nH]n3)ncnc2c1 [AZD2811] (first compound max 10 µM, 7x7, partner max 1 µM)	0.961	0.815	0.441	0.162	0.611	0.238	0.44	0.514	0.992	0.661	0.387	0.233	0.792	0.276	0.703	0.391	1	0.974	0.245	1
CCc1c2c(nc3ccc(O)cc13)-c1cc3c(c(=O)n1C2)COC(=O)[C@]3(O)CC [SN-38] + CN(C)CCCOc1ccc(-c2ccc3ncc4c(c3c2)n(C2CCOCC2)c(=O)n4C)cn1 [AZD0156] (first compound max 0.3 µM, 7x7, partner max 1 µM)	0.995	0.659	1	0.772	0.732	0.673	0.763	0.937	1	0.923	0.607	0.419	0.867	1	0.696	0.982	1	1	0.892	0.957
CN(C)CCCOc1ccc(-c2ccc3ncc4c(c3c2)n(C2CCOCC2)c(=O)n4C)cn1 [AZD0156] + C[C@@H]1COCCN1C2=NC(=NC(=C2)C3(CC3)[S@](=N)(=O)C)C4=C5C=CNC5=NC=C4 [AZD6738] (first compound max 1 µM, 7x7, partner max 10 µM)	0.887	0.749	0.988	0.831	0.84	0.481	0.57	0.848	0.97	0.734	0.226	0.575	0.831	0.903	0.616	0.93	0.967	0.992	0.343	0.927
COc1nnc2ccc(N3CCC(c4ccc(OCCN5CCN(C)C(=O)[C@H]5C)cc4)CC3)nn12 [AZD5153] + CC1(C)CCC(CN2CCN(c3ccc(C(=O)NS(=O)(=O)c4ccc(NCC5CCOCC5)c([N+](=O)[O-])c4)c(Oc4cnc5[nH]ccc5c4)c3)CC2)=C(c2ccc(Cl)cc2)C1 [Venetoclax] (first compound max 1 µM, 7x7, partner max 1 µM)	0.956	0.442	0.979	0.649	0.523	0.611	0.607	0.729	0.425	0.871	0.381	0.263	0.685	0.665	0.444	0.56	1	1	0.49	1
CCN(CCO)CCCOc1ccc2c(Nc3cc(CC(=O)Nc4cccc(F)c4)[nH]n3)ncnc2c1 [AZD2811] + C=CCn1c(=O)c2cnc(Nc3ccc(N4CCN(C)CC4)cc3)nc2n1-c1cccc(C(C)(C)O)n1 [AZD1775] (first compound max 1 µM, partner max 1 µM)	0.966	0.491	0.891	0.301	0.497	0.311	0.339	0.767	1	0.852	0.301	0.184	0.599	0.454	0.458	0.827	1	0.936	0.396	0.882
CC1(C)CCC(CN2CCN(c3ccc(C(=O)NS(=O)(=O)c4ccc(NCC5CCOCC5)c([N+](=O)[O-])c4)c(Oc4cnc5[nH]ccc5c4)c3)CC2)=C(c2ccc(Cl)cc2)C1 [Venetoclax] + C1CN(CCC1(C(=O)N[C@@H](CCO)C2=CC=C(C=C2)Cl)N)C3=NC=NC4=C3C=CN4 [Capivasertib] (first compound max 1 µM, 7x7, partner max 3 µM)	0.687	0.146	0.916	0.463	0.24	0.604	0.592	0.389	0.718	0.724	0.143	0.368	0.298	0.667	0.5	0.365	0.933	1	0.517	0.824
